Results taken from article PMC12920416, “Preclinical development of [^18F]TAAR1-2203 as a PET radioligand for imaging TAAR1 expression and receptor occupancy” (European Journal of Nuclear Medicine and Molecular Imaging, 2025).
≈ marks a conversion by molar mass, not a printed value.

Key:
mouse TAAR1 = mouse TAAR1 (Mus musculus, UniProt Q923Y8); assay: Competition binding assay, mouse TAAR1
rat TAAR1 = rat TAAR1 (Rattus norvegicus, UniProt Q923Y9); assay: Competition binding assay, rat TAAR1
TAAR1 [1] = assay: Competition binding assay, cynomolgus monkey TAAR1
TAAR1 [2] = molecular target: T1, TAAR1 (Homo sapiens, UniProt Q96RJ0); assay: Competition binding assay, human TAAR1
T1 sequence (Q96RJ0 1-339): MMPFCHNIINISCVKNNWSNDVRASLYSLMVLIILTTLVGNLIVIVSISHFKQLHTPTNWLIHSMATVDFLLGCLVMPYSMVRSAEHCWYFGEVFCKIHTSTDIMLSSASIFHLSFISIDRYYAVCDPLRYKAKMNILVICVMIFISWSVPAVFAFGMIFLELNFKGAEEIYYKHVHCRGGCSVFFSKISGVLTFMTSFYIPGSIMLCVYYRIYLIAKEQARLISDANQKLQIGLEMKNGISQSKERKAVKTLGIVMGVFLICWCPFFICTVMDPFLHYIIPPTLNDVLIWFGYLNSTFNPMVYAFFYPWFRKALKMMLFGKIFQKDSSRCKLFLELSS

[3] = Plasma stability of non-radioactive reference, mouse plasma; format: in vitro ADME; settings: 37 °C, up to 5 h
[4] = Plasma stability of non-radioactive reference, rat plasma; format: in vitro ADME; settings: 37 °C, up to 5 h
[5] = Plasma stability of non-radioactive reference, non-human primate plasma; format: in vitro ADME; settings: 37 °C, up to 5 h
[6] = Plasma stability of non-radioactive reference, human plasma; format: in vitro ADME; settings: 37 °C, up to 5 h
[7] = 4-week repeat dose toxicity study, dogs; format: in vivo; settings: 4-week repeat dose toxicity study
[8] = 4-week repeat dose toxicity study, rats; format: in vivo; settings: 4-week repeat dose toxicity study
Aqueous solubility = format: physicochemical; settings: pH 6.5 in 0.05 M phosphate buffer
From the text: (§1) ^a Aqueous solubility at pH 6.5 in 0.05 M phosphate buffer; ^b pH 7.4

[9] = logD (physicochemical profiling); settings: pH 7.4
From the text: as §1

PAMPA permeability = format: in vitro ADME
From the text: (§2) Supplement 259_2025_7564_MOESM1_ESM.docx, table 1: Supplemental Table 1. Physicochemical properties of TAAR1-2203. | column: 194.2

[10] = Chemical stability in aqueous buffer; format: physicochemical; settings: pH 1, 4, 6.5 and 8 for 2 h at 37 °C
From the text: as §2

[11] = Clearance in human liver microsomes; format: in vitro ADME
From the text: (§3) Supplement 259_2025_7564_MOESM1_ESM.docx, table 2: Supplemental Table 2. ADME profile of TAAR1 ligand TAAR1-2203. | column: 14 / 10

[12] = Clearance in rat liver microsomes; format: in vitro ADME
From the text: as §3

[13] = Clearance in human hepatocytes; format: in vitro ADME
From the text: as §3

[14] = Clearance in rat hepatocytes; format: in vitro ADME
From the text: as §3

[15] = Plasma protein binding of TAAR1-2203, human plasma; format: in vitro ADME
[16] = Plasma protein binding of TAAR1-2203, rat plasma; format: in vitro ADME
human P-glycoprotein = human P-glycoprotein (Homo sapiens, UniProt P08183); assay: P-glycoprotein efflux assay, human P-gp; format: in vitro ADME
mouse P-glycoprotein = mouse P-glycoprotein (Mus musculus, UniProt P21447); assay: P-glycoprotein efflux assay, mouse P-gp; format: in vitro ADME
Chain of mouse P-glycoprotein (P21447 whole entry): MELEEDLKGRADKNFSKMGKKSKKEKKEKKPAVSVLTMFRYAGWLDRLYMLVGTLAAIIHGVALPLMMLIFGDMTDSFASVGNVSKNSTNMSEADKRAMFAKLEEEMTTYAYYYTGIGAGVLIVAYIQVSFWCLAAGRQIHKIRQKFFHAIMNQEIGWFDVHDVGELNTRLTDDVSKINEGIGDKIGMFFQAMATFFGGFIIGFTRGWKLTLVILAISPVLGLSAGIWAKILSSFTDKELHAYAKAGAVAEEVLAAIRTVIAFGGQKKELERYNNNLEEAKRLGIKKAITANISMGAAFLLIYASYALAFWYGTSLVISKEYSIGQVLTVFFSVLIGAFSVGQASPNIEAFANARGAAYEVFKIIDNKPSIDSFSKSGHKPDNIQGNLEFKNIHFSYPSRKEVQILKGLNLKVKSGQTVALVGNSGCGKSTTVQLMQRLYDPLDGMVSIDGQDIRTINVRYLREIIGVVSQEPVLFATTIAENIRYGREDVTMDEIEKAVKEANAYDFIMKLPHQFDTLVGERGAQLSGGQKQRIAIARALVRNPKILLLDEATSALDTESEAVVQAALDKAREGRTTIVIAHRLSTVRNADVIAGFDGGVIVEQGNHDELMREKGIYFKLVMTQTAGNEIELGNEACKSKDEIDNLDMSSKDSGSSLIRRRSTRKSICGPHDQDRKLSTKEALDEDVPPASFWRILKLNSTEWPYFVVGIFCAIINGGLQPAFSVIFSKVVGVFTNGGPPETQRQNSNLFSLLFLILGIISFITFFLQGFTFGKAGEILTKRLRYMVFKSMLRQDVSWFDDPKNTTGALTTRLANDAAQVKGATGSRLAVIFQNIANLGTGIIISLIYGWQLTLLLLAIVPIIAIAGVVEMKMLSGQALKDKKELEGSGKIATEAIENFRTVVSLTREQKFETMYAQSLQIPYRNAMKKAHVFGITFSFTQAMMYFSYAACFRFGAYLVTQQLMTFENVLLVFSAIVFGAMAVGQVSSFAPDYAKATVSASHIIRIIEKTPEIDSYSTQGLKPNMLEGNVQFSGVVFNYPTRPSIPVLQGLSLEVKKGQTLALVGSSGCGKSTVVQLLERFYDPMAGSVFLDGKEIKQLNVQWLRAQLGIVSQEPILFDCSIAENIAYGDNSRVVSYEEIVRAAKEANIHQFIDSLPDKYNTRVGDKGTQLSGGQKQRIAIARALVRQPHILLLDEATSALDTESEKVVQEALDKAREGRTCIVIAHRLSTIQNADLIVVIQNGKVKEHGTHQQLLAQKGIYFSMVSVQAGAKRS

Chain of human P-glycoprotein (P08183 whole entry): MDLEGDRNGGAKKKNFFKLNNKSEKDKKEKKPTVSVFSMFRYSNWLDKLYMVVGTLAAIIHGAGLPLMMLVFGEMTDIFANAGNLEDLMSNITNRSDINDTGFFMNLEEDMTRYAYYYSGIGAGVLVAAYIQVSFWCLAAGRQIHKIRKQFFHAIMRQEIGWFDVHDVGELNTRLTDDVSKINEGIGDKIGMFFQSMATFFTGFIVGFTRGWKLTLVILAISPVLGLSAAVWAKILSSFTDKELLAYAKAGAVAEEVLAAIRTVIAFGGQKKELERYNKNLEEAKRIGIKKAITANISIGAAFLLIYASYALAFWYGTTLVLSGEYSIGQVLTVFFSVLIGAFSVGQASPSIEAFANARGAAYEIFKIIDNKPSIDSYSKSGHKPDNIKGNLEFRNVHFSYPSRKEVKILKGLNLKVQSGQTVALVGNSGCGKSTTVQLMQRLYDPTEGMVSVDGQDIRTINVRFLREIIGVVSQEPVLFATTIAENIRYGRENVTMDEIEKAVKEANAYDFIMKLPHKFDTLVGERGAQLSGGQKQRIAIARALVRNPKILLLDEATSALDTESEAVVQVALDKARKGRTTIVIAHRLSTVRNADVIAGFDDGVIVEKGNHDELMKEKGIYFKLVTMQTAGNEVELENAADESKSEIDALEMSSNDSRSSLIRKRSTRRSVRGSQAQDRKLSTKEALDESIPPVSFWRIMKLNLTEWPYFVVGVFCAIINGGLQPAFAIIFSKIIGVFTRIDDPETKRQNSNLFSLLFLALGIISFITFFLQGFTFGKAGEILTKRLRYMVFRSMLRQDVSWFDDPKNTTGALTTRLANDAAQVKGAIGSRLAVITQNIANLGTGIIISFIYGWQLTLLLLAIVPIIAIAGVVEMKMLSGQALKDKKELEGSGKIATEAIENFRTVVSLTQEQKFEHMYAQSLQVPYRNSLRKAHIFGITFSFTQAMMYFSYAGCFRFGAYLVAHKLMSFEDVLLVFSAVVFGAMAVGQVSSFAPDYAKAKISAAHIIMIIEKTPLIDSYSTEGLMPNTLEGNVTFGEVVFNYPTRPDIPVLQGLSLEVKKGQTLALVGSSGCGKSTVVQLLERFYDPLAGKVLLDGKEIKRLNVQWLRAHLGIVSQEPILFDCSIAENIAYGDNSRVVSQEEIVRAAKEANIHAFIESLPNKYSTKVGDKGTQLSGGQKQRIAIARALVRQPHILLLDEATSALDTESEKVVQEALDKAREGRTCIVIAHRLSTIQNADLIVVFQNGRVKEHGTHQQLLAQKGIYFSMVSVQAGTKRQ
Chain of rat TAAR1 (Q923Y9 whole entry): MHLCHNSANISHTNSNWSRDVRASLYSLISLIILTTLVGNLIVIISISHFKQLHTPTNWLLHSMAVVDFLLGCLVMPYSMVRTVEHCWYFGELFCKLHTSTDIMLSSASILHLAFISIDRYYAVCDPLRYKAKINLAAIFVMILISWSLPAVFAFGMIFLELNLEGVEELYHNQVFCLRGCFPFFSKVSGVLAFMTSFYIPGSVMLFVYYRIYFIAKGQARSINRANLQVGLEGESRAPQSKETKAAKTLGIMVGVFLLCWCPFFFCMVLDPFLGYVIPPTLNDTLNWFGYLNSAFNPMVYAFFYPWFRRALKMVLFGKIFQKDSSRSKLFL
Chain of mouse TAAR1 (Q923Y8 whole entry): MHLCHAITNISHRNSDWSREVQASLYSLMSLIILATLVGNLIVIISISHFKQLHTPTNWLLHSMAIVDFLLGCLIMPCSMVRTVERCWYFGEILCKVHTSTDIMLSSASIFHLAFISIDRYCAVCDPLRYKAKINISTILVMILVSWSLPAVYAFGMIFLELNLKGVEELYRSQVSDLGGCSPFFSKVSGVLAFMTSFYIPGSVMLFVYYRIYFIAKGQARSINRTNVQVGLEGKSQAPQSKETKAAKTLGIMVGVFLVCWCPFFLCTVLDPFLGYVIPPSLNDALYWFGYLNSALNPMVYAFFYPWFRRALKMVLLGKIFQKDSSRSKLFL

Cc1c(F)cccc1[C@H]1COC(N)=N1 [TAAR1-2203]
Ki (mouse TAAR1): 0.9 nM
Ki (rat TAAR1): 7.4 nM
Ki (TAAR1 [1]): 22.5 nM
Ki (TAAR1 [2]): 5.7 nM
Stability in mouse plasma [3]: No degradation was observed
Stability in rat plasma [4]: No degradation was observed
Stability in non-human primate plasma [5]: No degradation was observed
Stability in human plasma [6]: No degradation was observed
Doses well tolerated without adverse events, dogs [7]: up to 3 mg/kg
Doses well tolerated without adverse events, rats [8]: ≤ 10 mg/kg
Solubility (Aqueous solubility): 210 µg/mL (≈ 1080 µM)
logD [9]: 1.12
PAMPA Peff (PAMPA permeability): 14.5 cm/s*10E^-6
Chemical stability in aqueous buffer [10]: Stable at pH 1, 4, 6.5 and 8 for 2 h at 37 °C
human clearance in microsomes [11]: 14 µL/min/mg protein
rat clearance in microsomes [12]: 10 µL/min/mg protein
human clearance in hepatocytes [13]: 10 µL/min/10E6 cells
rat clearance in hepatocytes [14]: 1.7 µL/min/10E6 cells
human plasma free fraction ([15]; human): 62%
Free fraction in human plasma ([15]; non-radioactive TAAR1-2203): approximately 60%
Free fraction in rodent plasma ([16]; non-radioactive TAAR1-2203): approximately 60%
Free fraction in rat plasma ([16]; rat): 61%
Papp, AB inhibitor, human P-glycoprotein assay (human P-glycoprotein): 41.2 ×10⁻⁶ cm/s
human P-glycoprotein efflux ratio (human P-glycoprotein): 1.2
Papp, AB inhibitor, mouse P-glycoprotein assay (mouse P-glycoprotein): 31.6 ×10⁻⁶ cm/s
mouse P-glycoprotein efflux ratio (mouse P-glycoprotein): 1.0
